# Measured values taken from ChEMBL document CHEMBL3885861, “Open TG-GATES”.
# Species: Rattus norvegicus
# Test: Open TG-GATES - Regimen: Daily Repeat
# Format: toxicity, organism-based, Sprague-Dawley
# Parameters: regimen Daily Repeat, gender Male, age 6 weeks
# Conditions: in vivo, po, 1000 mg/kg, route gavage, dose level High; for APTT / Bas / Eos / Fbg / Hb / Ht / Lym / MCH / MCHC / MCV / Mono / Neu / PT / Plat / RBC / Ret / WBC: tissue Blood; for KIDNEY_L / KIDNEY_R / KIDNEY_TOTAL: tissue Kidney; for LIVER: tissue Liver; for A/G / ALP / ALT / AST / BUN / CRE / Ca / Cl / DBIL / GLC / IP / K / LDH / Na / PL / RALB / TBIL / TC / TG / TP / gamma-GTP: tissue Plasma
structure (smiles),measurement,setting,value
C[C@H]1O[C@H](O[C@H]2[C@H](O)[C@@H](O)[C@@H](O[C@H]3[C@H](O)[C@@H](O)C(O)O[C@@H]3CO)O[C@@H]2CO)[C@H](O)[C@@H](O)[C@@H]1N[C@H]1C=C(CO)[C@@H](O)[C@H](O)[C@H]1O (some centres not stated) [ACARBOSE],TERMINAL_BW,"72 h, time 3 day",230.8 g
same,APTT,"72 h, time 3 day",17.8 s
same,Bas,"72 h, time 3 day",0%
same,Eos,"72 h, time 3 day",1%
same,Fbg,"72 h, time 3 day",308.6 mg/dL
same,Hb,"72 h, time 3 day",13.5 g/dL
same,Ht,"72 h, time 3 day",40.6%
same,Lym,"72 h, time 3 day",75.8%
same,MCH,"72 h, time 3 day",21.2 pg
same,MCHC,"72 h, time 3 day",33.3%
same,MCV,"72 h, time 3 day",63.7 fL
same,Mono,"72 h, time 3 day",2.8%
same,Neu,"72 h, time 3 day",19.6%
same,PT,"72 h, time 3 day",13 s
same,Plat,"72 h, time 3 day",118.2 x10_4/uL
same,RBC,"72 h, time 3 day",638.2 x10_4/ul
same,Ret,"72 h, time 3 day",6.9%
same,WBC,"72 h, time 3 day",90.6 x10_2/uL
same,KIDNEY_L,"72 h, time 3 day",1 g
same,KIDNEY_R,"72 h, time 3 day",1 g
same,KIDNEY_TOTAL,"72 h, time 3 day",2 g
same,LIVER,"72 h, time 3 day",10.9 g
same,A/G,"72 h, time 3 day",0.9
same,ALP,"72 h, time 3 day",1494.4 IU/L
same,ALT,"72 h, time 3 day",46.8 IU/L
same,AST,"72 h, time 3 day",74 IU/L
same,BUN,"72 h, time 3 day",13.4 mg/dL
same,CRE,"72 h, time 3 day",0.2 mg/dL
same,Ca,"72 h, time 3 day",10.7 mg/dL
same,Cl,"72 h, time 3 day",104.2 meq/L
same,DBIL,"72 h, time 3 day",0.012 mg/dL
same,GLC,"72 h, time 3 day",169.8 mg/dL
same,IP,"72 h, time 3 day",7.7 mg/dL
same,K,"72 h, time 3 day",3.9 meq/L
same,LDH,"72 h, time 3 day",95.2 IU/L
same,Na,"72 h, time 3 day",140 meq/L
same,PL,"72 h, time 3 day",140 mg/dL
same,RALB,"72 h, time 3 day",2.6 g/dL
same,TBIL,"72 h, time 3 day",0.062 mg/dL
same,TC,"72 h, time 3 day",75.2 mg/dL
same,TG,"72 h, time 3 day",87 mg/dL
same,TP,"72 h, time 3 day",5.5 g/dL
same,gamma-GTP,"72 h, time 3 day",1 IU/L
same,TERMINAL_BW,"[…], time 7 day",275.6 g
same,TERMINAL_BW,"[…], time 14 day",312 g
same,TERMINAL_BW,"[…], time 28 day",399.3 g
same,APTT,"[…], time 7 day",16.9 s
same,Bas,"[…], time 7 day",0%
same,Eos,"[…], time 7 day",1%
same,Fbg,"[…], time 7 day",302.6 mg/dL
same,Hb,"[…], time 7 day",13.6 g/dL
same,Ht,"[…], time 7 day",40.4%
same,Lym,"[…], time 7 day",79.8%
same,MCH,"[…], time 7 day",20.9 pg
same,MCHC,"[…], time 7 day",33.7%
same,MCV,"[…], time 7 day",62.2 fL
same,Mono,"[…], time 7 day",2.2%
same,Neu,"[…], time 7 day",16.2%
same,PT,"[…], time 7 day",13.1 s
same,Plat,"[…], time 7 day",119.8 x10_4/uL
same,RBC,"[…], time 7 day",649.4 x10_4/ul
same,Ret,"[…], time 7 day",6.1%
same,WBC,"[…], time 7 day",120 x10_2/uL
same,APTT,"[…], time 14 day",21 s
same,Bas,"[…], time 14 day",0%
same,Eos,"[…], time 14 day",1%
same,Fbg,"[…], time 14 day",297 mg/dL
same,Hb,"[…], time 14 day",14.7 g/dL
same,Ht,"[…], time 14 day",43.8%
same,Lym,"[…], time 14 day",79%
same,MCH,"[…], time 14 day",20.6 pg
same,MCHC,"[…], time 14 day",33.5%
same,MCV,"[…], time 14 day",61.4 fL
same,Mono,"[…], time 14 day",1.8%
same,Neu,"[…], time 14 day",17.4%
same,PT,"[…], time 14 day",13.3 s
same,Plat,"[…], time 14 day",135 x10_4/uL
same,RBC,"[…], time 14 day",713.4 x10_4/ul
same,Ret,"[…], time 14 day",4.4%
same,WBC,"[…], time 14 day",106.9 x10_2/uL
same,APTT,"[…], time 28 day",17.7 s
same,Bas,"[…], time 28 day",0.4%
same,Eos,"[…], time 28 day",1.2%
same,Fbg,"[…], time 28 day",283 mg/dL
same,Hb,"[…], time 28 day",16.2 g/dL
same,Ht,"[…], time 28 day",47.2%
same,Lym,"[…], time 28 day",83.6%
same,MCH,"[…], time 28 day",19.6 pg
same,MCHC,"[…], time 28 day",34.4%
same,MCV,"[…], time 28 day",57 fL
same,Mono,"[…], time 28 day",2%
same,Neu,"[…], time 28 day",12.6%
same,PT,"[…], time 28 day",13.3 s
same,Plat,"[…], time 28 day",102.8 x10_4/uL
same,RBC,"[…], time 28 day",829 x10_4/ul
same,Ret,"[…], time 28 day",2.2%
same,WBC,"[…], time 28 day",110.1 x10_2/uL
same,KIDNEY_L,"[…], time 7 day",1.1 g
same,KIDNEY_R,"[…], time 7 day",1.1 g
same,KIDNEY_TOTAL,"[…], time 7 day",2.2 g
same,KIDNEY_L,"[…], time 14 day",1.2 g
same,KIDNEY_R,"[…], time 14 day",1.2 g
same,KIDNEY_TOTAL,"[…], time 14 day",2.4 g
same,KIDNEY_L,"[…], time 28 day",1.4 g
same,KIDNEY_R,"[…], time 28 day",1.3 g
same,KIDNEY_TOTAL,"[…], time 28 day",2.7 g
same,LIVER,"[…], time 7 day",13.9 g
same,LIVER,"[…], time 14 day",13.4 g
same,LIVER,"[…], time 28 day",16.6 g
same,A/G,"[…], time 7 day",0.9
same,ALP,"[…], time 7 day",1346.8 IU/L
same,ALT,"[…], time 7 day",41.2 IU/L
same,AST,"[…], time 7 day",66 IU/L
same,BUN,"[…], time 7 day",16.6 mg/dL
same,CRE,"[…], time 7 day",0.2 mg/dL
same,Ca,"[…], time 7 day",10.9 mg/dL
same,Cl,"[…], time 7 day",103.2 meq/L
same,DBIL,"[…], time 7 day",0.012 mg/dL
same,GLC,"[…], time 7 day",182.4 mg/dL
same,IP,"[…], time 7 day",7.3 mg/dL
same,K,"[…], time 7 day",3.9 meq/L
same,LDH,"[…], time 7 day",88.4 IU/L
same,Na,"[…], time 7 day",141.4 meq/L
same,PL,"[…], time 7 day",140.2 mg/dL
same,RALB,"[…], time 7 day",2.6 g/dL
same,TBIL,"[…], time 7 day",0.048 mg/dL
same,TC,"[…], time 7 day",66.4 mg/dL
same,TG,"[…], time 7 day",134.8 mg/dL
same,TP,"[…], time 7 day",5.7 g/dL
same,gamma-GTP,"[…], time 7 day",1 IU/L
same,A/G,"[…], time 14 day",0.8
same,ALP,"[…], time 14 day",1516 IU/L
same,ALT,"[…], time 14 day",40 IU/L
same,AST,"[…], time 14 day",69.8 IU/L
same,BUN,"[…], time 14 day",17.4 mg/dL
same,CRE,"[…], time 14 day",0.3 mg/dL
same,Ca,"[…], time 14 day",10.7 mg/dL
same,Cl,"[…], time 14 day",105.2 meq/L
same,DBIL,"[…], time 14 day",0.006 mg/dL
same,GLC,"[…], time 14 day",184 mg/dL
same,IP,"[…], time 14 day",7 mg/dL
same,K,"[…], time 14 day",4.1 meq/L
same,LDH,"[…], time 14 day",88.8 IU/L
same,Na,"[…], time 14 day",142.2 meq/L
same,PL,"[…], time 14 day",138.2 mg/dL
same,RALB,"[…], time 14 day",2.7 g/dL
same,TBIL,"[…], time 14 day",0.046 mg/dL
same,TC,"[…], time 14 day",69.8 mg/dL
same,TG,"[…], time 14 day",89 mg/dL
same,TP,"[…], time 14 day",5.8 g/dL
same,gamma-GTP,"[…], time 14 day",1 IU/L
same,A/G,"[…], time 28 day",0.8
same,ALP,"[…], time 28 day",1153.4 IU/L
same,ALT,"[…], time 28 day",35.4 IU/L
same,AST,"[…], time 28 day",63.6 IU/L
same,BUN,"[…], time 28 day",18.4 mg/dL
same,CRE,"[…], time 28 day",0.3 mg/dL
same,Ca,"[…], time 28 day",10.8 mg/dL
same,Cl,"[…], time 28 day",104.6 meq/L
same,DBIL,"[…], time 28 day",0.014 mg/dL
same,GLC,"[…], time 28 day",180.2 mg/dL
same,IP,"[…], time 28 day",6.5 mg/dL
same,K,"[…], time 28 day",4 meq/L
same,LDH,"[…], time 28 day",72.6 IU/L
same,Na,"[…], time 28 day",142 meq/L
same,PL,"[…], time 28 day",151.8 mg/dL
same,RALB,"[…], time 28 day",2.8 g/dL
same,TBIL,"[…], time 28 day",0.058 mg/dL
same,TC,"[…], time 28 day",73.4 mg/dL
same,TG,"[…], time 28 day",166.2 mg/dL
same,TP,"[…], time 28 day",6.2 g/dL
same,gamma-GTP,"[…], time 28 day",1.2 IU/L
